Experiments:
Format in all cases: in vivo
[1] = tested on: Italian ryegrass (Lolium multiflorum); test: Test A preemergence, visual injury rating; conditions: Lolium multiflorum, pre-emergence, 240 h, 0 to 100 scale (0 no effect, 100 complete control), read-out: Ryegrass, Italian plant response rating
Summary of the method: (§1)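 Visual injury scored 0–100 (100 = complete control) against untreated controls about 10 days after treatment in a greenhouse. Test chemicals, formulated with surfactant in non-phytotoxic solvent, were sprayed on soil preemergence or on 2-10 cm, one- to two-leaf plants postemergence.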

[2] = tested on: barnyardgrass (Echinochloa crus-galli); test: Test A preemergence, visual injury rating; conditions: Echinochloa crus-galli, pre-emergence, 240 h, 0 to 100 scale (0 no effect, 100 complete control), read-out: Barnyardgrass plant response rating
Summary of the method: as §1

[3] = tested on: giant foxtail (Setaria faberii); test: Test A preemergence, visual injury rating; conditions: Setaria faberi, pre-emergence, 240 h, 0 to 100 scale (0 no effect, 100 complete control), read-out: Foxtail, Giant plant response rating
Summary of the method: as §1

[4] = tested on: kochia (Kochia scoparia); test: Test A preemergence, visual injury rating; conditions: Bassia scoparia, pre-emergence, 240 h, 0 to 100 scale (0 no effect, 100 complete control), read-out: Kochia plant response rating
Summary of the method: as §1

[5] = tested on: pigweed (Amaranthus retroflexus); test: Test A preemergence, visual injury rating; conditions: Amaranthus retroflexus, pre-emergence, 240 h, 0 to 100 scale (0 no effect, 100 complete control), read-out: Pigweed plant response rating
Summary of the method: as §1

[6] = tested on: ragweed (common ragweed, Ambrosia elatior); test: Test A preemergence, visual injury rating; conditions: Ambrosia artemisiifolia, pre-emergence, 240 h, 0 to 100 scale (0 no effect, 100 complete control), read-out: Ragweed plant response rating
Summary of the method: as §1

[7] = tested on: ducksalad (Heteranthera limosa); test: Test B flooded paddy test, plant response rating; conditions: Heteranthera limosa, 312 h; 250 g ai/ha; Flood; scale of 0 to 100 where 0 is no effect and 100 is complete control; 13 to 15 days
Summary of the method: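 Pots were flooded to 3 cm above the soil surface at treatment, compound applied directly to the paddy water, and that depth held throughout. Plants were kept in a greenhouse for 13 to 15 days, then visually rated against untreated controls.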

[8] = tested on: barnyardgrass (Echinochloa crus-galli); test: Test C postemergence, plant response rating; conditions: Echinochloa crus-galli, post-emergence
Summary of the method: (§2)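 Preemergence: seeds sown in loam–sand blend or silt loam and sprayed with test chemicals in a non-phytotoxic surfactant-containing solvent. Postemergence: potted plants at 2–18 cm (1–4-leaf stage) sprayed with the same formulation. After 13–15 d in greenhouse, visual rating versus controls on 0 (no effect) to 100 (complete control) scale.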

[9] = tested on: corn (Zea mays); test: Test C postemergence, plant response rating; conditions: Zea mays, post-emergence
Summary of the method: as §2

[10] = tested on: crabgrass, large (large crabgrass, Digitaria sanguinalis); test: Test C postemergence, plant response rating; conditions: Digitaria sanguinalis, post-emergence
Summary of the method: as §2

[11] = tested on: kochia (Kochia scoparia); test: Test C postemergence, plant response rating; conditions: Bassia scoparia, post-emergence
Summary of the method: as §2

[12] = tested on: lambsquarters (Chenopodium album); test: Test C postemergence, plant response rating; conditions: Chenopodium album, post-emergence
Summary of the method: as §2

[13] = tested on: morningglory (Ipomoea coccinea); test: Test C postemergence, plant response rating; conditions: Ipomoea, post-emergence
Summary of the method: as §2

[14] = tested on: nutsedge, yellow (yellow nutsedge, Cyperus esculentus); test: Test C postemergence, plant response rating; conditions: Cyperus, post-emergence
Summary of the method: as §2

[15] = tested on: oat, wild (wild oat Avena fatua); test: Test C postemergence, plant response rating; conditions: Avena fatua, post-emergence
Summary of the method: as §2

[16] = tested on: ragweed (common ragweed, Ambrosia elatior); test: Test C postemergence, plant response rating; conditions: Ambrosia artemisiifolia, post-emergence
Summary of the method: as §2

[17] = tested on: velvetleaf (Abutilon theophrasti); test: Test C postemergence, plant response rating; conditions: Abutilon theophrasti, post-emergence
Summary of the method: as §2

[18] = 62 g ai/ha, scale 0 to 100 (0 no effect, 100 complete control)
[19] = 125 g ai/ha, scale 0 to 100 (0 no effect, 100 complete control)

Work on `O=C(OCC(F)(F)C(F)(F)F)c1c(Br)cccc1Oc1ncc(Cl)cn1` [Compound 23, 2,2,3,3,3-pentafluoropropyl 2-bromo-6-[(5-chloro-2-pyrimidinyl)oxy]benzoate] yielded a pest or weed control at 125 g/ha ([1]; 125 g ai/ha) of 0%, a pest or weed control at 500 g/ha ([1]; 500 g ai/ha) of 40% and a pest or weed control at 125 g/ha ([2]; 125 g ai/ha) of 20%. It also gave a pest or weed control at 500 g/ha ([2]; 500 g ai/ha) of 70%, a pest or weed control at 125 g/ha ([3]; 125 g ai/ha) of 70% and a pest or weed control at 500 g/ha ([3]; 500 g ai/ha) of 100%. It also gave a pest or weed control at 125 g/ha ([4]; 125 g ai/ha) of 0%, a pest or weed control at 500 g/ha ([4]; 500 g ai/ha) of 50% and a pest or weed control at 125 g/ha ([5]; 125 g ai/ha) of 100%. It also gave a pest or weed control at 500 g/ha ([5]; 500 g ai/ha) of 100%, a pest or weed control at 125 g/ha ([6]; 125 g ai/ha) of 0% and a pest or weed control at 500 g/ha ([6]; 500 g ai/ha) of 10%. The pest or weed control at 250 g/ha [7] was 30%, the pest or weed control at 16 g/ha ([8]; 16 g ai/ha, scale 0 to 100) was 10% and the pest or weed control at 31 g/ha ([8]; 31 g ai/ha, scale 0 to 100) was 10%. The pest or weed control at 62 g/ha [8, 18] was 10%, the pest or weed control at 125 g/ha [8, 19] was 20% and the Corn plant response rating (crop injury, 0 = no effect, 100 = complete kill) at 16 g/ha ([9]; 16 g ai/ha, scale 0 to 100) was 5%. For the same compound, the Corn plant response rating (crop injury, 0 = no effect, 100 = complete kill) at 31 g/ha ([9]; 31 g ai/ha, scale 0 to 100) was 5%, the plant injury at 62 g/ha [9, 18] was 5% and the plant injury at 125 g/ha [9, 19] was 10%. The pest or weed control at 16 g/ha ([10]; 16 g ai/ha, scale 0 to 100) was 10%, the pest or weed control at 31 g/ha ([10]; 31 g ai/ha, scale 0 to 100) was 10% and the pest or weed control at 62 g/ha [10, 18] was 20%. For the same compound, the pest or weed control at 125 g/ha [10, 19] was 25%, the pest or weed control at 16 g/ha ([11]; 16 g ai/ha, scale 0 to 100) was 5% and the pest or weed control at 31 g/ha ([11]; 31 g ai/ha, scale 0 to 100) was 50%. For the same compound, the pest or weed control at 62 g/ha [11, 18] was 55%, the pest or weed control at 125 g/ha [11, 19] was 85% and the pest or weed control at 16 g/ha ([12]; 16 g ai/ha, scale 0 to 100) was 25%. For the same compound, the pest or weed control at 31 g/ha ([12]; 31 g ai/ha, scale 0 to 100) was 55%, the pest or weed control at 62 g/ha [12, 18] was 65% and the pest or weed control at 125 g/ha [12, 19] was 80%. For the same compound, the pest or weed control at 16 g/ha ([13]; 16 g ai/ha, scale 0 to 100) was 10%, the pest or weed control at 31 g/ha ([13]; 31 g ai/ha, scale 0 to 100) was 55% and the pest or weed control at 62 g/ha [13, 18] was 60%. It also gave a pest or weed control at 125 g/ha [13, 19] of 35%, a pest or weed control at 16 g/ha ([14]; 16 g ai/ha, scale 0 to 100) of 0% and a pest or weed control at 31 g/ha ([14]; 31 g ai/ha, scale 0 to 100) of 0%. For the same compound, the pest or weed control at 62 g/ha [14, 18] was 5%, the pest or weed control at 125 g/ha [14, 19] was 10% and the pest or weed control at 16 g/ha ([15]; 16 g ai/ha, scale 0 to 100) was 5%. It also gave a pest or weed control at 31 g/ha ([15]; 31 g ai/ha, scale 0 to 100) of 5%, a pest or weed control at 62 g/ha [15, 18] of 10% and a pest or weed control at 125 g/ha [15, 19] of 5%. For the same compound, the pest or weed control at 16 g/ha ([16]; 16 g ai/ha, scale 0 to 100) was 15%, the pest or weed control at 31 g/ha ([16]; 31 g ai/ha, scale 0 to 100) was 35% and the pest or weed control at 62 g/ha [16, 18] was 40%. It also gave a pest or weed control at 125 g/ha [16, 19] of 50%, a pest or weed control at 16 g/ha ([17]; 16 g ai/ha, scale 0 to 100) of 10% and a pest or weed control at 31 g/ha ([17]; 31 g ai/ha, scale 0 to 100) of 35%. It also gave a pest or weed control at 62 g/ha ([17]; 62 g ai/ha, scale 0 to 100 (0 no effect, 100 complete control), read-out: Velvetleaf plant response rating) of 35% and a pest or weed control at 125 g/ha [17, 19] of 40%.

Reference: patent US11053204B2, “Pyrimidinyloxy benzene derivatives as herbicides” (FMC Corporation, priority 2015, dated 2021)
